From patent US12479843B2, “Spiro ring-containing quinazoline compounds” (WIGEN BIOMEDICINE TECHNOLOGY (SHANGHAI) CO., LTD., priority 2019, dated 2025)

Legend:
pERK level in H358 cells = assay: pERK and ERK protein content assay in H358 cells (ELISA); format: cell-based; conditions: Homo sapiens, NCI-H358, compound 1 μM, 24 h, pERK/ERK ratio compared with DMSO group, read-out: Inhibition rate (%) of pERK level
Method in brief: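 Percent inhibition of pERK relative to DMSO, from the ELISA pERK/ERK ratio in lysed H358 cells. Compound applied at 1 μM for 24 h after one day of growth.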

H358 cells = assay: Antiproliferative activity against H358 cells (Cell Titer Glow, ultra-low attachment plate); format: cell-based; conditions: Homo sapiens, NCI-H358, 72 h, 96-well ultra-low attachment plate, three days after addition of compound, Cell Titer Glow
Description: 2500 H358 cells were seeded in a 96-well ultra-low attachment plate (corning, 7007). After one day of growth, a serially diluted compound (a maximum concentration of 5 μM, 5-fold dilution, a total of five doses) was added. Three days after the addition of the compound, Cell Titer Glow (Promega, G9681) was added to evaluate pellet growth, and the IC50 value was calculated.

Structure (SMILES): C=C(F)C(=O)N1CC2(CCN(c3nc(N4CCC(N5CCOCC5)CC4)nc4c(OCC(F)(F)F)c(-c5c(C)ccc6[nH]ncc56)c(C5CC5)cc34)CC2)C1 [Compound 149]
- inhibition at 1 µM (pERK level in H358 cells): 50 to 90%
- IC50 (H358 cells): 0.3 to 1 µM

Structure (SMILES): C=CC(=O)N1CC2(CCN(c3nc(OC4CN5CCC4CC5)nc4c(OCC(F)(F)F)c(-c5c(C)ccc6[nH]ncc56)c(C5CC5)cc34)CC2)C1 (stereo not drawn) [Compound 150]
- inhibition at 1 µM (pERK level in H358 cells): > 90%
- IC50 (H358 cells): < 0.3 µM

Structure (SMILES): C=C(F)C(=O)N1CC2(CCN(c3nc(OC4CN5CCC4CC5)nc4c(OCC(F)(F)F)c(-c5c(C)ccc6[nH]ncc56)c(C5CC5)cc34)CC2)C1 (stereo not drawn) [Compound 151]
- inhibition at 1 µM (pERK level in H358 cells): > 90%
- IC50 (H358 cells): 0.3 to 1 µM

Structure (SMILES): C=CC(=O)N1CC2(CCN(c3nc(N4CCN(C5COC5)CC4)nc4c(OCC(F)(F)F)c(-c5c(C)ccc6[nH]ncc56)c(C5CC5)cc34)CC2)C1 [Compound 152]
- inhibition at 1 µM (pERK level in H358 cells): > 90%
- IC50 (H358 cells): < 0.3 µM

Structure (SMILES): C=C(F)C(=O)N1CC2(CCN(c3nc(N4CCN(C5COC5)CC4)nc4c(OCC(F)(F)F)c(-c5c(C)ccc6[nH]ncc56)c(C5CC5)cc34)CC2)C1 [Compound 153]
- inhibition at 1 µM (pERK level in H358 cells): > 90%
- IC50 (H358 cells): < 0.3 µM

Structure (SMILES): C=CC(=O)N1CC2(CCN(c3nc(N4CCN(C5CCOCC5)CC4)nc4c(OCC(F)(F)F)c(-c5c(C)ccc6[nH]ncc56)c(C5CC5)cc34)CC2)C1 [Compound 154]
- inhibition at 1 µM (pERK level in H358 cells): > 90%
- IC50 (H358 cells): < 0.3 µM

Structure (SMILES): C=C(F)C(=O)N1CC2(CCN(c3nc(N4CCN(C5CCOCC5)CC4)nc4c(OCC(F)(F)F)c(-c5c(C)ccc6[nH]ncc56)c(C5CC5)cc34)CC2)C1 [Compound 155]
- inhibition at 1 µM (pERK level in H358 cells): 50 to 90%
- IC50 (H358 cells): 0.3 to 1 µM

Structure (SMILES): C=CC(=O)N1CC2(CCN(c3nc(N4CC5(CCOCC5)C4)nc4c(OCC(F)(F)F)c(-c5c(C)ccc6[nH]ncc56)c(C5CC5)cc34)CC2)C1 [Compound 156]
- inhibition at 1 µM (pERK level in H358 cells): > 90%
- IC50 (H358 cells): < 0.3 µM

Structure (SMILES): C=CC(=O)N1CC2(CCN(c3nc(N4CC5(CN(CC6CC6)C5)C4)nc4c(OCC(F)(F)F)c(-c5c(C)ccc6[nH]ncc56)c(C5CC5)cc34)CC2)C1 [Compound 157]
- inhibition at 1 µM (pERK level in H358 cells): > 90%
- IC50 (H358 cells): < 0.3 µM

Structure (SMILES): C=CC(=O)N1CC2(CCN(c3nc(N4CC5(C4)CN(C4COC4)C5)nc4c(OCC(F)(F)F)c(-c5c(C)ccc6[nH]ncc56)c(C5CC5)cc34)CC2)C1 [Compound 158]
- inhibition at 1 µM (pERK level in H358 cells): > 90%
- IC50 (H358 cells): < 0.3 µM

Structure (SMILES): C=CC(=O)N1CC2(CCN(c3nc(N4CCC5(CCN(C)C5)C4)nc4c(OCC(F)(F)F)c(-c5c(C)ccc6[nH]ncc56)c(C5CC5)cc34)CC2)C1 (stereo not drawn) [Compound 159]
- inhibition at 1 µM (pERK level in H358 cells): > 90%
- IC50 (H358 cells): < 0.3 µM

Structure (SMILES): C=CC(=O)N1CC2(CCN(c3nc(N4CCC5(CCN(CCOC)C5)C4)nc4c(OCC(F)(F)F)c(-c5c(C)ccc6[nH]ncc56)c(C5CC5)cc34)CC2)C1 (stereo not drawn) [Compound 160]
- inhibition at 1 µM (pERK level in H358 cells): > 90%
- IC50 (H358 cells): < 0.3 µM

Structure (SMILES): C=CC(=O)N1CC2(CCN(c3nc(N4CCC5(CCN(C)CC5)C4)nc4c(OCC(F)(F)F)c(-c5c(C)ccc6[nH]ncc56)c(C5CC5)cc34)CC2)C1 [Compound 161]
- inhibition at 1 µM (pERK level in H358 cells): > 90%
- IC50 (H358 cells): < 0.3 µM

Structure (SMILES): C=CC(=O)N1CC2(CCN(c3nc(N4CCC5(CC4)CC(N)C5)nc4c(OCC(F)(F)F)c(-c5c(C)ccc6[nH]ncc56)c(C5CC5)cc34)CC2)C1 [Compound 162]
- inhibition at 1 µM (pERK level in H358 cells): > 90%
- IC50 (H358 cells): < 0.3 µM

Structure (SMILES): C=CC(=O)N1CC2(CCN(c3nc(N4CCC5(CCN(C)C5)CC4)nc4c(OCC(F)(F)F)c(-c5c(C)ccc6[nH]ncc56)c(C5CC5)cc34)CC2)C1 [Compound 163]
- inhibition at 1 µM (pERK level in H358 cells): > 90%
- IC50 (H358 cells): < 0.3 µM

Structure (SMILES): C=CC(=O)N1CC2(CCN(c3nc(N4CCC5(CCN(C)CC5)CC4)nc4c(OCC(F)(F)F)c(-c5c(C)ccc6[nH]ncc56)c(C5CC5)cc34)CC2)C1 [Compound 164]
- inhibition at 1 µM (pERK level in H358 cells): > 90%
- IC50 (H358 cells): < 0.3 µM

Structure (SMILES): C=CC(=O)N1CC2(CCN(c3nc(N4CC(N(C)CC)C4)nc4c(OCC(F)(F)F)c(-c5c(C)ccc6[nH]ncc56)c(C5CC5)cc34)CC2)C1 [Compound 165]
- inhibition at 1 µM (pERK level in H358 cells): > 90%
- IC50 (H358 cells): < 0.3 µM

Structure (SMILES): C=CC(=O)N1CC2(CCN(c3nc(N4CC(N(CC)CC)C4)nc4c(OCC(F)(F)F)c(-c5c(C)ccc6[nH]ncc56)c(C5CC5)cc34)CC2)C1 [Compound 166]
- inhibition at 1 µM (pERK level in H358 cells): > 90%
- IC50 (H358 cells): < 0.3 µM
